The supplement of paper PMC3621838
± gives the standard deviation of the averaged measurements.

System: HEK293 NF-kB-luciferase reporter cells
Test: NF-kB luciferase reporter activity, robust Z-score vs plate median (robust Z-score (log luminescence)); higher = stronger NF-kB reporter activation
Conditions: TNF treatment time 8.5 h, transfection time 72 h
Description: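 Primary screen of an Ambion Pre-miR miRNA mimic library (miRBase v8.0, 1.6 pmol/well, 384-well, duplicate) reverse-transfected into HEK293 cells stably expressing a 5x NF-kB firefly luciferase reporter. After 72 h the cells were treated with vehicle or TNF (40 ng/mL) for 8.5 h and luminescence was read (BriteLite). Raw luminescence was log-transformed and converted to a robust Z-score per plate: (x - plate median)/plate MAD. Sequence given is the mature miRNA strand of the double-stranded mimic.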

Sequence	NF-kB luciferase reporter activity (TNF 0 ng/mL)	NF-kB luciferase reporter activity (TNF 40 ng/mL)
UUCACAGUGGCUAAGUUCCGC	0.203 ± 0.55	0.955 ± 0.096
AUAAGACGAGCAAAAAGCUUGU	-0.187 ± 0.52	-1.62 ± 0.032
UGAGGUAGGAGGUUGUAUAGU	-0.314 ± 0.58	-0.881 ± 0.37
UAUACAAGGGCAAGCUCUCUGU	-1.38 ± 0.64	-1.11 ± 0.035
UACAGUAUAGAUGAUGUACUAG	0.343 ± 0.35	0.659 ± 0.17
GUCAUACACGGCUCUCCUCUCU	0.54 ± 0.4	-1.19 ± 0.14
GAAGUGCUUCGAUUUUGGGGUGU	-1.7 ± 0.2	-0.363 ± 0.1
ACUGCCCUAAGUGCUCCUUCU	2.18 ± 0.41	0.608 ± 0.041
UCUCCCAACCCUUGUACCAGUG	0.0398 ± 0.056	1.18 ± 0.046
UUCCCUUUGUCAUCCUUCGCCU	0.84 ± 0.23	0.327 ± 0.09
AAAGUGCAUCCUUUUAGAGGUUU	-0.831 ± 1	-0.425 ± 0.04
UUAUAAUACAACCUGAUAAGUG	-0.295 ± 1.1	-0.534 ± 0.029
GCCCCUGGGCCUAUCCUAGAA	1.22 ± 0.89	0.489 ± 0.046
ACUAGACUGAAGCUCCUUGAGG	-0.0115 ± 0.13	0.7434 ± 0.0017
ACAUAGAGGAAAUUCCACGUUU	0.113 ± 0.85	-0.459 ± 0.0079
UAUGUAAUAUGGUCCACAUCUU	-1.06 ± 0.48	-1.342 ± 0.0044
UCACAGUGAACCGGUCUCUUUC	-1.06 ± 0.48	0.0486 ± 0.083
UGGUAGACUAUGGAACGUA	0.274 ± 0.8	0.0556 ± 0.21
AAUCCUUUGUCCCUGGGUGAGA	0.375 ± 0.22	0.638 ± 0.062
CAUCUUACCGGACAGUGCUGGA	-1.28 ± 0.79	-0.895 ± 0.12
UUCUCCAAAAGGGAGCACUUUC	1.07 ± 0.25	-1.42 ± 0.11
UCGUGCAUCCCUUUAGAGUGUU	1.73 ± 0.3	1.07 ± 0.079

Sequence	NF-kB luciferase reporter activity (TNF 0 ng/mL)	NF-kB luciferase reporter activity (TNF 40 ng/mL)
AAUCAUACAGGGACAUCCAGUU	-0.326 ± 0.46	0.117 ± 0.12
AGAGGCUGGCCGUGAUGAAUUC	0.912 ± 0.72	-1.96 ± 0.079
CCUAGUAGGUGUCCAGUAAGUGU	-0.0662 ± 0.93	0.432 ± 0.025
UACUCAGGAGAGUGGCAAUCACA	1.06 ± 0.93	-0.306 ± 0.029
AGGUUACCCGAGCAACUUUGCA	0.305 ± 0.58	-0.0618 ± 0.016
UGUCUUGCAGGCCGUCAUGCA	1.79 ± 0.31	-0.465 ± 0.12
UAAUACUGCCGGGUAAUGAUGG	0.0214 ± 0.44	1.06 ± 0.17
UCCAGCAUCAGUGAUUUUGUUGA	0.425 ± 0.23	0.858 ± 0.14
UAGCACCAUCUGAAAUCGGUU	0.81 ± 0.93	-2.2 ± 0.16
AAUCAUACACGGUUGACCUAUU	0	-0.0786 ± 0.0065
UGUUUGCAGAGGAAACUGAGAC	1.44 ± 0.076	-1.26 ± 0.051
GGUAGAUUCUCCUUCUAUGAG	-0.702 ± 0.69	-1.25 ± 0.063
CUCUAGAGGGAAGCACUUUCUCU	1.17 ± 0.88	0.571 ± 0.12
CUCCUGACUCCAGGUCCUGUGU	1.44 ± 0.61	1.21 ± 0.14
UCCCUGUCCUCCAGGAGCUCA	0.322 ± 0.46	0.69 ± 0.39
AACGCACUUCCCUUUAGAGUGU	0.317 ± 0.45	0.826 ± 0.073
CGCAUCCCCUAGGGCAUUGGUGU	-0.887 ± 0.054	-0.479 ± 0.1
AAGUGCUUCCUUUUAGAGGGUU	-1.7 ± 0.2	-1.29 ± 0.042
CAAAGCGCUCCCCUUUAGAGGU	0	0.254 ± 0.098
UUGUACAUGGUAGGCUUUCAUU	0.596 ± 0.28	0.433 ± 0.025
UUUGUUCGUUCGGCUCGCGUGA	-0.464 ± 1	-3.19 ± 0.074
UAUGUGCCUUUGGACUACAUCG	-0.472 ± 0.26	-1.23 ± 0.037

Sequence	NF-kB luciferase reporter activity (TNF 0 ng/mL)	NF-kB luciferase reporter activity (TNF 40 ng/mL)
CAGUGCAAUGAUGAAAGGGCAU	1.21 ± 0.24	1.237 ± 0.0041
UUCAAGUAAUUCAGGAUAGGUU	0.218 ± 0.18	0.0275 ± 0.0019
UAUGUGGGAUGGUAAACCGCUU	0.166 ± 0.72	-1.21 ± 0.026
GUGCCGCCAUCUUUUGAGUGU	0.919 ± 0.46	-1.45 ± 0.12
AAAGUGCUUCCUUUUAGAGGGUU	-1.51 ± 0.46	-0.653 ± 0.033
CGGGUGGAUCACGAUGCAAUUU	0.731 ± 0.46	-2.0207 ± 0.0002
ACUUUAACAUGGAAGUGCUUUCU	-0.37 ± 0.4	0.272 ± 0.026
CAUCCCUUGCAUGGUGGAGGGU	0.67 ± 0.24	0.53 ± 0.0024
UGGAGAGAAAGGCAGUUC	0.465 ± 0.4	0.268 ± 0.031
UCAGUCUCAUCUGCAAAGAAG	2.97 ± 0.59	1.58 ± 0.083
GUGUCUUUUGCUCUGCAGUCA	0.568 ± 0.32	0.168 ± 0.045
CUGCAAAGGGAAGCCCUUUCU	-0.197 ± 1	-0.78 ± 0.054
GUGCCUACUGAGCUGAUAUCAGU	-0.791 ± 0.86	0.339 ± 0.13
AAAGCGCUUCCCUUCAGAGUGU	0.00327 ± 0.13	0.467 ± 0.04
AAAGUGCAUCCUUUUAGAGUGUUAC	-1.8 ± 0.56	-0.116 ± 0.027
AACGCGCUUCCCUAUAGAGGG	-0.412 ± 0.44	0.629 ± 0.15
CUGACCUAUGAAUUGACAGCC	-0.152 ± 0.091	-0.0202 ± 0.12
GUGUGUGGAAAUGCUUCUGC	0.447 ± 0.27	-1.04 ± 0.03
CCACUGCCCCAGGUGCUGCUGG	0.831 ± 0.013	-0.0587 ± 0.18
AUCCUUGCUAUCUGGGUGCUA	-0.588 ± 0.71	0.413 ± 0.069
UCUACAGUGCACGUGUCU	-1.16 ± 0.34	-0.417 ± 0.031
AUUCUGCAUUUUUAGCAAGU	3.61 ± 0.35	-0.325 ± 0.13

Sequence	NF-kB luciferase reporter activity (TNF 0 ng/mL)	NF-kB luciferase reporter activity (TNF 40 ng/mL)
AAUCGUACAGGGUCAUCCACUU	-0.187 ± 0.52	0.638 ± 0.17
CUCUUGAGGGAAGCACUUUCUGUU	1.14 ± 0.36	0.555 ± 0.059
AUUCCUAGAAAUUGUUCAUA	0.0899 ± 0.13	0.855 ± 0.032
AGGACCUGCGGGACAAGAUUCUU	-0.175 ± 0.95	1.11 ± 0.19
UAAUACUGUCUGGUAAAACCGU	-0.175 ± 0.95	0.65 ± 0.15
UCUCUGGAGGGAAGCACUUUCUG	-0.463 ± 0.65	-0.521 ± 0.11
AAAGCGCUUCCCUUUGCUGGA	-0.603 ± 0.07	0.608 ± 0.072
AAAGUGCUGCGACAUUUGAGCGU	-0.434 ± 0.93	-1.06 ± 0.19
GCUGCGCUUGGAUUUCGUCCCC	-0.0918 ± 0.13	0.328 ± 0.013
CAAAGUGCCUCCCUUUAGAGUGU	0.645 ± 0.51	0.811 ± 0.028
AUCACACAAAGGCAACUUUUGU	-0.634 ± 0.41	-0.131 ± 0.049
CUACAAAGGGAAGCACUUUCUC	-1.11 ± 0.64	-1.63 ± 0.19
CUCUAGAGGGAAGCGCUUUCUGUU	1.69 ± 0.18	0.579 ± 0.019
AAAGUGCUUCCUUUUAGAGGC	-1.48 ± 0.11	-0.83 ± 0.031
UGCUUCCUUUCAGAGGGU	1.34 ± 0.039	0.941 ± 0.075
UUCUCCAAAAGAAAGCACUUUCUG	-0.171 ± 0.24	-1.816 ± 0.017
ACUCAAAAUGGGGGCGCUUUCC	-0.706 ± 0.31	0.907 ± 0.14
UCCAGCUCCUAUAUGAUGCCUUU	3.61 ± 0.75	-0.188 ± 0.11
CUGGCCCUCUCUGCCCUUCCGU	0.704 ± 0.42	-0.112 ± 0.19
AAAAGCUGGGUUGAGAGGGCGAA	-0.418 ± 0.33	-0.74 ± 0.12
UGAGAACUGAAUUCCAUAGGCU	-1.29 ± 0.15	0.439 ± 0.12
AGAGGUAGUAGGUUGCAUAGU	-0.2 ± 0.023	-1.24 ± 0.038
